According to ChEMBL document CHEMBL6096732 (J Med Chem, 2025):
The source made the active and inactive calls. No cut-off for these calls is given here.

Assays:
[1] = biological target: T1, Protein deacetylase HDAC6 (Homo sapiens) (UniProt Q9UBN7); conditions: dose 500.0 nM, time 3.0 hrs
T1 sequence (whole entry): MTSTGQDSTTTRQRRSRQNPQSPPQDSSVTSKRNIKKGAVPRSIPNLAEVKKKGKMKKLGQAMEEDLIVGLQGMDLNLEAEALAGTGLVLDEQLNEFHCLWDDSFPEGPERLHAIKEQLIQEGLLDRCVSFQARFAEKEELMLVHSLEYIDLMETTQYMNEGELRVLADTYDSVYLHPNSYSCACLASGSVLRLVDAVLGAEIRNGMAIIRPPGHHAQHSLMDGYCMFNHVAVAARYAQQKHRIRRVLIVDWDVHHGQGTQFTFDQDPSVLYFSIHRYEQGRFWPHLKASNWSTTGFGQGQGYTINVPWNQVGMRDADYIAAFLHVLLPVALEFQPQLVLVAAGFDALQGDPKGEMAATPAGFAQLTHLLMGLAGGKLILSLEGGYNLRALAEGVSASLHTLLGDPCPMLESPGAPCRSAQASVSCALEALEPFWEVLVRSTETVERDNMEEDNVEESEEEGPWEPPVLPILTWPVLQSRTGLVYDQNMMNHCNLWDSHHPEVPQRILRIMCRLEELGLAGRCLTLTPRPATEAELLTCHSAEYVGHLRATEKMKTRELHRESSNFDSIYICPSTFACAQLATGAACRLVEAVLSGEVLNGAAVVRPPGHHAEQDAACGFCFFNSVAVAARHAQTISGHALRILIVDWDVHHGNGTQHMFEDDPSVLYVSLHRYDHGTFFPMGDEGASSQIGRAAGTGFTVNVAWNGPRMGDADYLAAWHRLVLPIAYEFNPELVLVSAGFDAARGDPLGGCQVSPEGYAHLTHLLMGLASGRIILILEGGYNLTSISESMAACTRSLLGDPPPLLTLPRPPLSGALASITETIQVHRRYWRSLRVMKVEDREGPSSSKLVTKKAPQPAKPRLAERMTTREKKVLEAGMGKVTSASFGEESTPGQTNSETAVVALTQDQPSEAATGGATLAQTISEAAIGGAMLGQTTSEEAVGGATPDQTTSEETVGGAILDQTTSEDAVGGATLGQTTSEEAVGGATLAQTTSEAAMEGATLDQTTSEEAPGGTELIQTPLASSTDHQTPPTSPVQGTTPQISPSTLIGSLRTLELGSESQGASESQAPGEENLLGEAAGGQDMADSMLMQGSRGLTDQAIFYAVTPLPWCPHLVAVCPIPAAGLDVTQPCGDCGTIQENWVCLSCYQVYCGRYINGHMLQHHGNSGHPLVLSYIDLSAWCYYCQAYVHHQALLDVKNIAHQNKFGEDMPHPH

[2] = biological target: Histone deacetylase 3 (Homo sapiens, UniProt O15379); conditions: dose 500.0 nM, time 3.0 hrs
[3] = biological target: Histone deacetylase 1 (Homo sapiens, UniProt Q13547); conditions: dose 500.0 nM, time 3.0 hrs
[4] = Retention time of compound by HPLC analysis; type: physicochemical
[5] = system: 4T1; assay: cells; type: functional, cell-based; conditions: Mus musculus, 4T1, 72 h
[6] = biological target: Histone deacetylase 11 (Homo sapiens, UniProt Q96DB2); assay: Inhibition of recombinant HDAC11 (unknown origin) preincubated for 1 hr followed by substrate addition and measured after 2 hrs by fluorescence based micro plate reader analysis
[7] = system: SK-OV-3; assay: cells; type: functional, cell-based; conditions: Homo sapiens, SK-OV-3, 72 h
Description: Antiproliferative activity against human SK-OV-3 cells assessed as inhibition of cell growth incubated for 72 hrs by MTT assay

[8] = system: HCT-116; assay: cells; type: functional, cell-based; conditions: Homo sapiens, HCT-116, 72 h
Description: Antiproliferative activity against human HCT-116 cells assessed as inhibition of cell growth incubated for 72 hrs by MTT assay

[9] = system: B16-F10; assay: cells; type: functional, cell-based; conditions: Mus musculus, B16-F10, 72 h
Description: Antiproliferative activity against mouse B16-F10 cells assessed as inhibition of cell growth incubated for 72 hrs by MTT assay

[10] = biological target: T2, Histone deacetylase 3 (Mus musculus) (UniProt O88895); assay: Inhibition of HDAC3 in mouse B16-F10 cells assessed as increase in histone H3 acetylation level at 5 to 20 uM incubated for 24 hrs by Western blot analysis; type: cell-based; conditions: dose 5-20 µM
T2 sequence (whole entry): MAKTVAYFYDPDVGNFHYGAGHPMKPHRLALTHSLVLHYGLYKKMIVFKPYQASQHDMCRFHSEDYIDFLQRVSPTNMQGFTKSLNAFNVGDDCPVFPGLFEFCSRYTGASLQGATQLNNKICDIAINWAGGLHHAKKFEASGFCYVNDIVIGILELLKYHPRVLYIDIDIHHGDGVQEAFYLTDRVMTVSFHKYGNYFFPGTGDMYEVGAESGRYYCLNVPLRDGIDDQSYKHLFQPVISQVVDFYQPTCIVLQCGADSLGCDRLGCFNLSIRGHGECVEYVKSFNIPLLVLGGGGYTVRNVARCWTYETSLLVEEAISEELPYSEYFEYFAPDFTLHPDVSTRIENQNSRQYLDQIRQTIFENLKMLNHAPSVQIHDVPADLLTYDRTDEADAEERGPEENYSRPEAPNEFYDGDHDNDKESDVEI

[11] = biological target: T2, Histone deacetylase 3 (Mus musculus); assay: Inhibition of HDAC3 in mouse 4T1 cells assessed as increase in histone H3 acetylation level at 5 to 20 uM incubated for 24 hrs by Western blot analysis; type: cell-based; conditions: dose 5-20 µM
[12] = biological target: T2, Histone deacetylase 3 (Mus musculus); assay: In vivo inhibition of HDAC3 in male C57BL/6 mouse model implanted with mouse B16-F10 cells assessed as increase in acetylated histone H3 level at 50 mg/kg, po administered once daily via gavage for 14 days by Western blot analysis; type: functional, organism-based; conditions: time 14.0 day
[13] = system: Mus musculus; assay: Immunomodulatory activity in male C57BL/6 mouse model implanted with mouse B16-F10 cells assessed as increase in CD3+ CD8+ T cells in tumor at 50 mg/kg, po administered once daily for 14 days by flow cytometric analysis (reference value: 3.2 %); type: functional; conditions: time 14 day
[14] = biological target: T2, Histone deacetylase 3 (Mus musculus); assay: In vivo inhibition of HDAC3 in male C57BL/6 mouse model implanted with mouse B16-F10 cells assessed as increase in acetylated histone H3 level in tumor at 50 mg/kg, po administered once daily via gavage for 14 days by DAPI staining based immunofluorescence analysis; type: functional, organism-based; conditions: time 14.0 day
[15] = system: Mus musculus; assay: Immunomodulatory activity in male C57BL/6 mouse model implanted with mouse B16-F10 cells assessed as increase in CD3+ CD4+ T cells in tumor at 50 mg/kg, po administered once daily for 14 days by flow cytometric analysis (reference value: 3.1 %); type: functional; conditions: time 14 day
[16] = system: Mus musculus; assay: Effect on acetylated alpha-tubulin level in male C57BL/6 mouse tumor implanted with mouse B16-F10 cells at 50 mg/kg, po administered once daily via gavage for 14 days by Western blot analysis; type: functional, organism-based; conditions: time 14.0 day

Sequence of Histone deacetylase 3 (O15379 whole entry): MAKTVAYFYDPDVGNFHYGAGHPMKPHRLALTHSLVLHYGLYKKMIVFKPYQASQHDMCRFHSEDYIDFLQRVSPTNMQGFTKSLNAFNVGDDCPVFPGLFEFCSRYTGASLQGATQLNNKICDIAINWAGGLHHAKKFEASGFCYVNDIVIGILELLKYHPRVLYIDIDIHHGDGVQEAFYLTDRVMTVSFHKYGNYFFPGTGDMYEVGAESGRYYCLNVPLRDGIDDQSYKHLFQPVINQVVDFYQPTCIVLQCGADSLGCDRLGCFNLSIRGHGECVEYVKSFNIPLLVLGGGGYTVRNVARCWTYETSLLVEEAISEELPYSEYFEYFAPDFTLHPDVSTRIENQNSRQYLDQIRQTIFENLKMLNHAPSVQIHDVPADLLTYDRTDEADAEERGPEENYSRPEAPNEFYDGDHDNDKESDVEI
Sequence of Histone deacetylase 1 (Q13547 whole entry): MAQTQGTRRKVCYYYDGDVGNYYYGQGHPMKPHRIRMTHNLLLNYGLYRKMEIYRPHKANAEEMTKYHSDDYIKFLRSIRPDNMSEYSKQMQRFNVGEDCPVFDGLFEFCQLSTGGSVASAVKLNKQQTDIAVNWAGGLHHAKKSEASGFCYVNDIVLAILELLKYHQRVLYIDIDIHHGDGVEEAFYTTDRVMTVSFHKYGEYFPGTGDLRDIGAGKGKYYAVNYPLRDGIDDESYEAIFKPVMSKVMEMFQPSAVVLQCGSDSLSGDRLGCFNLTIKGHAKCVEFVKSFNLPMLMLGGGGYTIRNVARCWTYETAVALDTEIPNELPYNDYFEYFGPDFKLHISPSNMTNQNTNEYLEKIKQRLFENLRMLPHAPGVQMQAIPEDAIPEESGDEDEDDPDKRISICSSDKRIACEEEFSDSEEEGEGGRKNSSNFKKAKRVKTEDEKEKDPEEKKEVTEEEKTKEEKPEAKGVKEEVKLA
Sequence of Histone deacetylase 11 (Q96DB2 whole entry): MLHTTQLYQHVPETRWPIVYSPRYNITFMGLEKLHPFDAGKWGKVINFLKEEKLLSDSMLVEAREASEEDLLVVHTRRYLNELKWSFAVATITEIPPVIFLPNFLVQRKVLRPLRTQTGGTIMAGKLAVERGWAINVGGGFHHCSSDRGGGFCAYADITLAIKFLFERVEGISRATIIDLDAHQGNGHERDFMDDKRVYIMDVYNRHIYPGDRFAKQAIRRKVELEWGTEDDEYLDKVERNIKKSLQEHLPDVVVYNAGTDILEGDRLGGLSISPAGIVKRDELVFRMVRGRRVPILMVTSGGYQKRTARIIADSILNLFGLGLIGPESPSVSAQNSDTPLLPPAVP

| Compound | inhibition [1] [%] | inhibition [2] [%] | inhibition [3] [%] | further results |
| --- | --- | --- | --- | --- |
| CCCNNC(=O)c1ccc(Cn2c3ccccc3c3c(-c4ccc(O)c(OC)c4)nc4ccccc4c32)cc1 | < 10 | 79 | 20 | – |
| CC(/C=C/C(=O)NO)=C\[C@@H](C)C(=O)c1ccc(N(C)C)cc1 [TRICHOSTATIN] | – | – | – | Retention_time [4]: 14.7 min |
| CCNNC(=O)c1ccc(Cn2c3ccccc3c3c(-c4ccccn4)nc4ccccc4c32)cc1 | < 10 | 32 | 11 | – |
| CCCNNC(=O)c1ccc(Cn2c3ccccc3c3c(-c4ccccc4)nc4ccccc4c32)cc1 | 24 | 57 | < 10 | – |
| CC(C)CCNNC(=O)c1ccc(Cn2c3ccccc3c3c(-c4ccccn4)nc4ccccc4c32)cc1 | < 10 | < 10 | < 10 | – |
| CCCNNC(=O)c1ccc(Cn2c3ccccc3c3c(-c4cn(C)c5ccccc45)nc4ccccc4c32)cc1 | < 10 | 36 | < 10 | – |
| C/C=C/CNNC(=O)c1ccc(Cn2c3ccccc3c3c(-c4ccccn4)nc4ccccc4c32)cc1 | < 10 | 91 | 39 | – |
| CCCNNC(=O)c1ccc(Cn2c3ccccc3c3c(-c4cccc(F)c4)nc4ccccc4c32)cc1 | < 10 | 69 | 20 | – |
| CCCNNC(=O)c1ccc(Cn2c3ccccc3c3c(-c4cc(OC)ccc4O)nc4ccccc4c32)cc1 | 14 | 66 | 27 | – |
| CCCCNNC(=O)c1ccc(Cn2c3ccccc3c3c(-c4ccccn4)nc4ccccc4c32)cc1 | < 10 | 92 | 35 | – |
| CCCCCCCCNNC(=O)c1ccc(Cn2c3ccccc3c3c(-c4ccccn4)nc4ccccc4c32)cc1 | 26 | 40 | < 10 | – |
| CCCNNC(=O)c1ccc(Cn2c3ccccc3c3c(-c4ccc(C#N)cc4)nc4ccccc4c32)cc1 | < 10 | 33 | < 10 | – |
| CCCNNC(=O)c1ccc(Cn2c3ccccc3c3c(-c4cccc([N+](=O)[O-])c4)nc4ccccc4c32)cc1 | 18 | 47 | < 10 | – |
| CCCNNC(=O)c1ccc(Cn2c3ccccc3c3c(-c4ccc(OC)cc4)nc4ccccc4c32)cc1 | < 10 | 58 | 29 | – |
| CCCNNC(=O)c1ccc(Cn2c3ccccc3c3c(-c4cccnc4)nc4ccccc4c32)cc1 | 21 | 84 | 16 | – |
| CCCCCCCCCCNNC(=O)c1ccc(Cn2c3ccccc3c3c(-c4ccccn4)nc4ccccc4c32)cc1 | < 10 | < 10 | < 10 | – |
| CCCNNC(=O)c1ccc(Cn2c3ccccc3c3c(-c4ccc(C(=O)NNCCC)cc4)nc4ccccc4c32)cc1 | < 10 | 38 | < 10 | – |
| Nc1ccccc1NC(=O)c1ccc(CNC(=O)OCc2cccnc2)cc1 [ENTINOSTAT] | 24 | – | 88 | IC50 [5]: 6.85 µM; IC50 [6]: > 10 µM; IC50 [7]: > 10 µM; IC50 [8]: 1.67 µM; IC50 [9]: 13.9 µM |
| CCCCCNNC(=O)c1ccc(Cn2c3ccccc3c3c(-c4ccccn4)nc4ccccc4c32)cc1 | < 10 | 82 | 20 | – |
| CCCN(CCC)NC(=O)c1ccc(Cn2c3ccccc3c3c(C4CCN(C(=O)OC(C)(C)C)CC4)nc4ccccc4c32)cc1 | < 10 | < 10 | < 10 | – |
| CCCNNC(=O)c1ccc(Cn2c3ccccc3c3c(-c4cc(Cl)ccc4O)nc4ccccc4c32)cc1 | 30 | 47 | 31 | – |
| CCCNNC(=O)c1ccc(Cn2c3ccccc3c3c(-c4cccc(Cl)c4)nc4ccccc4c32)cc1 | < 10 | 73 | 25 | – |
| CCCNNC(=O)c1ccc(Cn2c3ccccc3c3c(-c4ccncc4)nc4ccccc4c32)cc1 | 19 | 65 | 12 | – |
| CC(C)NNC(=O)c1ccc(Cn2c3ccccc3c3c(-c4ccccn4)nc4ccccc4c32)cc1 | < 10 | < 10 | < 10 | – |
| CCCCCCCNNC(=O)c1ccc(Cn2c3ccccc3c3c(-c4ccccn4)nc4ccccc4c32)cc1 | < 10 | 53 | 22 | – |
| CCCN(CCC)NC(=O)c1ccc(Cn2c3ccccc3c3c(-c4ccccn4)nc4ccccc4c32)cc1 | < 10 | 29 | 23 | – |
| O=C(CCCCCCC(=O)Nc1ccccc1)NO [VORINOSTAT] | – | 77 | – | inhibition [10]: Active; inhibition [11]: Active; inhibition [12]: Active; Activity [13]: 23%; inhibition [14]: Active; Activity [15]: 17%; Activity [16]: inactive |
| CCCNNC(=O)c1ccc(Cn2c3ccccc3c3c(C4CCN(C(=O)OC(C)(C)C)CC4)nc4ccccc4c32)cc1 | < 10 | 73 | 22 | – |
| CCCCCCCCCNNC(=O)c1ccc(Cn2c3ccccc3c3c(-c4ccccn4)nc4ccccc4c32)cc1 | < 10 | 29 | < 10 | – |
| CCCN(CCC)NC(=O)c1ccc(Cn2c3ccccc3c3c(-c4cccc(F)c4)nc4ccccc4c32)cc1 | < 10 | 31 | 27 | – |
